Active and inactive are the calls of the source. No rule for the calls is given here.
What was measured:
[1] = biological target: Beta-lactamase OXA-10 (Pseudomonas aeruginosa) (UniProt P14489); test: Inhibition of recombinant Pseudomonas aeruginosa OXA-10 at 200 uM using FC5 as substrate
[2] = biological target: Beta-lactamase TEM (Bacteria) (UniProt P62593); test: Inhibition of recombinant N-terminal His-tagged Escherichia coli TEM1 (24 to 286 residues) expressed in Escherichia coli BL21(DE3) at 200 uM using FC5 as substrate
[3] = biological target: Beta-lactamase (Escherichia coli K-12) (UniProt P00811); test: Inhibition of recombinant Escherichia coli AmpC at 200 uM using FC5 as substrate preincubated at 10 to 300 mins followed by substrate addition
[4] = biological target: Beta-lactamase CTX-M (Escherichia coli) (UniProt Q9EXV5); test: Inhibition of recombinant Escherichia coli EO516 N-terminal His6-tagged CTX-M using FC5 as substrate at 200 uM preincubated at 10 to 300 mins followed by substrate addition

Chain of Beta-lactamase OXA-10 (Pseudomonas aeruginosa) (P14489 whole entry, the tested form may be a part): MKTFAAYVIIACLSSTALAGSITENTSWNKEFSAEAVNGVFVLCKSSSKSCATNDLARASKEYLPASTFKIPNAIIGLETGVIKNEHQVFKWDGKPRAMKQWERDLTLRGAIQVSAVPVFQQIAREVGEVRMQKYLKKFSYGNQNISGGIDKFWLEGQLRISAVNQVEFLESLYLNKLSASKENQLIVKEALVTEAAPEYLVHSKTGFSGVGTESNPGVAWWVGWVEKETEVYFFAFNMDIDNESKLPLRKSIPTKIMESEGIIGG
Chain of Beta-lactamase TEM (Bacteria) (P62593 whole entry, the tested form may be a part): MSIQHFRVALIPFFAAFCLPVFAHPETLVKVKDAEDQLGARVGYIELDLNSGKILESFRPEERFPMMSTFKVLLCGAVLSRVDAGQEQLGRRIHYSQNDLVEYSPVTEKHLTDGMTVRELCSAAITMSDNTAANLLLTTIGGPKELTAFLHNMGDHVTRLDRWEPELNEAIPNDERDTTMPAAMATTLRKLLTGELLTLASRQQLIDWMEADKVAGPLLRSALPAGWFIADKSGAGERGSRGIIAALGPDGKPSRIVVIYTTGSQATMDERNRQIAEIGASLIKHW
Chain of Beta-lactamase (Escherichia coli K-12) (P00811 whole entry): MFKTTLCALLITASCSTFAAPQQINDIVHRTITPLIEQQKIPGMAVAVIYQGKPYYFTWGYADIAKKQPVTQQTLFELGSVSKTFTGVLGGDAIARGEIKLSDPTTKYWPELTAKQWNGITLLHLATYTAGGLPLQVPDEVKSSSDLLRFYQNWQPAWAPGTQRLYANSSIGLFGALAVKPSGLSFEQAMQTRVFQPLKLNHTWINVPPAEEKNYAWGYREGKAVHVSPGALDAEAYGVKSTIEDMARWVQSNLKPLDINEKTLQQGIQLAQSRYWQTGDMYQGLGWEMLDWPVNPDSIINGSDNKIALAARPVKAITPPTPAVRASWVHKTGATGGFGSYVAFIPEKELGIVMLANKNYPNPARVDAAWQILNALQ

SMILES	inhibition [1]	inhibition [2]	inhibition [3]	inhibition [4]
CN1CCN(NC(=O)CN2C(=O)/C(=C/c3cc(Cl)ccc3Cl)SC2=S)CC1	inactive	inactive	inactive	inactive
O=C(O)/C(S)=C/c1c(Cl)ccc(Cl)c1Cl	inactive	inactive	inactive	inactive
CN1CCN(NC(=O)CN2C(=O)/C(=C/c3ccccc3Cl)SC2=S)CC1	inactive	inactive	inactive	inactive
CN1CCN(NC(=O)CN2C(=O)/C(=C/c3cccc(Cl)c3Cl)SC2=S)CC1	inactive	inactive	inactive	inactive
CN1CCN(NC(=O)CN2C(=O)/C(=C/c3ccc(F)cc3)SC2=S)CC1	inactive	inactive	inactive	inactive
CN1CCN(NC(=O)CN2C(=O)/C(=C/c3ccccc3Br)SC2=S)CC1	inactive	inactive	inactive	inactive
O=C(O)CN1C(=O)/C(=C/c2ccccc2F)SC1=S	inactive	inactive	inactive	inactive
CN1CCN(NC(=O)CN2C(=O)/C(=C/c3c(Cl)ccc(Cl)c3Cl)SC2=S)CC1	inactive	inactive	inactive	inactive
O=C(O)CN1C(=O)/C(=C/c2ccccc2Cl)SC1=S	inactive	inactive	inactive	inactive
COc1ccc(/C=C2\SC(=S)N(CC(=O)O)C2=O)cc1	inactive	inactive	inactive	inactive
CN1CCN(NC(=O)CN2C(=O)/C(=C/c3c(F)ccc(F)c3F)SC2=S)CC1	inactive	inactive	inactive	inactive
CN1CCN(NC(=O)CN2C(=O)/C(=C/c3csc4ccccc34)SC2=S)CC1	inactive	inactive	inactive	inactive
Cc1cccc(C)c1/C=C1\SC(=S)N(CC(=O)O)C1=O	inactive	inactive	inactive	inactive
O=C(O)CN1C(=O)/C(=C/c2c(Cl)cccc2Cl)SC1=S	inactive	inactive	inactive	inactive
O=C(O)CN1C(=O)/C(=C/c2csc3ccccc23)SC1=S	inactive	inactive	inactive	inactive
O=C(O)CN1C(=O)/C(=C/c2cc(Cl)ccc2Cl)SC1=S	inactive	inactive	inactive	inactive

SMILES	inhibition [1]	inhibition [2]	inhibition [3]	inhibition [4]
CN1CCN(NC(=O)CN2C(=O)/C(=C/c3c(F)cccc3Cl)SC2=S)CC1	inactive	inactive	inactive	inactive
CN1CCN(NC(=O)CN2C(=O)/C(=C/c3ccccc3I)SC2=S)CC1	inactive	inactive	inactive	inactive
Cc1cccc(C)c1/C=C1\SC(=S)N(CC(=O)NN2CCN(C)CC2)C1=O	inactive	inactive	inactive	inactive
O=C(O)CN1C(=O)/C(=C/c2cccc(Cl)c2Cl)SC1=S	inactive	inactive	inactive	inactive
COc1ccc(/C=C2\SC(=S)N(CC(=O)NN3CCN(C)CC3)C2=O)cc1	inactive	inactive	inactive	inactive
CN1CCN(NC(=O)CN2C(=O)/C(=C/c3c(F)cccc3F)SC2=S)CC1	inactive	inactive	inactive	inactive
O=C(O)CN1C(=O)/C(=C/c2ccc(Br)cc2)SC1=S	inactive	inactive	inactive	inactive
Cc1ccc(/C=C2\SC(=S)N(CC(=O)O)C2=O)cc1	inactive	inactive	inactive	inactive
O=C(O)CN1C(=O)/C(=C/c2ccccc2)SC1=S	inactive	inactive	inactive	inactive
O=C(O)/C(S)=C/c1ccccc1Cc1ccc2ccccc2c1	inactive	inactive	inactive	inactive
CN1CCN(NC(=O)CN2C(=O)/C(=C/c3ccccc3)SC2=S)CC1	inactive	inactive	inactive	inactive
O=C(O)CN1C(=O)/C(=C/c2ccc(F)cc2)SC1=S	inactive	inactive	inactive	inactive
Cc1ccc(/C=C2\SC(=S)N(CC(=O)NN3CCN(C)CC3)C2=O)cc1	inactive	inactive	inactive	inactive
CN1CCN(NC(=O)CN2C(=O)/C(=C/c3c(Cl)cccc3Cl)SC2=S)CC1	inactive	inactive	inactive	inactive
O=C(O)CN1C(=O)/C(=C/c2ccccc2I)SC1=S	inactive	inactive	inactive	inactive
CN1CCN(NC(=O)CN2C(=O)/C(=C/c3ccccc3F)SC2=S)CC1	inactive	inactive	inactive	inactive

More lines, now with the values ahead:

inhibition [1]	inhibition [2]	inhibition [3]	inhibition [4]	SMILES
inactive	inactive	inactive	inactive	O=C(O)/C(S)=C/c1c(Cl)cccc1Cl
inactive	inactive	inactive	inactive	O=C(O)/C(S)=C/c1csc2ccccc12
inactive	inactive	inactive	inactive	Cc1ccc(/C=C(\S)C(=O)O)cc1
inactive	inactive	inactive	inactive	O=C(O)CN1C(=O)/C(=C/c2c(F)ccc(F)c2F)SC1=S
inactive	inactive	inactive	inactive	O=C(O)CN1C(=O)/C(=C/c2c(F)cccc2F)SC1=S
inactive	inactive	inactive	inactive	O=C(O)CN1C(=O)/C(=C/c2c(F)cccc2Cl)SC1=S
inactive	inactive	inactive	inactive	O=C(O)/C(S)=C/c1c(F)cccc1Cl
inactive	inactive	inactive	inactive	O=C(O)/C(S)=C/c1cccc(Cl)c1Cl
inactive	inactive	inactive	inactive	O=C(O)/C(S)=C/c1ccccc1F
inactive	inactive	inactive	inactive	O=C(O)/C(S)=C/c1ccccc1Cl
inactive	inactive	inactive	inactive	O=C(O)/C(S)=C/c1ccccc1Br
inactive	inactive	inactive	inactive	O=C(O)/C(S)=C/c1ccccc1I
inactive	inactive	inactive	inactive	O=C(O)/C(S)=C/c1ccccc1
inactive	inactive	inactive	inactive	O=C(O)/C(S)=C/c1c(F)ccc(F)c1F
inactive	inactive	inactive	inactive	O=C(O)/C(S)=C/c1c(F)cccc1F
inactive	inactive	inactive	inactive	O=C(O)/C(S)=C/c1cc(Cl)ccc1Cl
inactive	inactive	inactive	inactive	Cc1cccc(C)c1/C=C(\S)C(=O)O
inactive	inactive	inactive	inactive	O=C(O)/C(S)=C/c1ccc(F)cc1

— ChEMBL document CHEMBL4118127, “Structure activity relationship studies on rhodanines and derived enethiol inhibitors of metallo-β-lactamases” (Bioorg Med Chem, 2018)
